Laboratory results as given in patent publication EP0819689A1, “5-substituted (2H) chromenes” (Byk Gulden Lomberg Chemische Fabrik GmbH, priority 1996, dated 1998).

System: PDE IV
Experiment: Inhibition of PDE IV activity (method of Bauer and Schwabe, adapted to microtitre plates)
Format: biochemical
Details: Hemmung der PDE IV-Aktivität
Excerpt: Der Aktivitätstest wurde nach der Methode von Bauer und Schwabe durchgeführt, die auf Mikrotiterplatten adaptiert wurde (Naunyn-Schmiedeberg's Arch. Pharmacol. 1980, 311, 193-198). Hierbei erfolgt im ersten Schritt die PDE-Reaktion. In einem zweiten Schritt wird das entstandene 5'-Nukleotid durch eine 5'-Nukleotidase des Schlangengiftes von ophiophagus hannah (King Cobra) zum ungeladenen Nukleosid gespalten. Im dritten Schritt wird das Nukleosid auf Ionenaustauschsäulen vom verbliebenen geladenen Substrat getrennt. Die Säulen werden mit 2 ml 30 mM Ammoniumformiat (pH 6,0) direkt in Minivials eluiert, in die noch 2 ml Szintillatorflüssigkeit zur Zählung gegeben wird.
Die für die erfindungsgemäßen Verbindungen ermittelten Hemmwerte ergeben sich aus der folgenden Tabelle A, in der die Nummern der Verbindungen den Nummern der Beispiele entsprechen. Tabelle A

SMILES | PDE 4 -logIC50
COc1ccc(/C=C(\C#N)c2ccncc2)c2c1OC1(C=C2)CCCC1 [Verbindung 4, (Z)-Spiro{5-[2-Cyano-2-(pyrid-4-yl)ethenyl]-8-methoxy-[2H]chromen-2.1'-Cyclopentan}] | 6,12
COc1ccc(/C=C(\C#N)c2ccncc2)c2c1OC(C)(C)C=C2 [Verbindung 5, (Z)-5-[2-Cyano-2-(pyrid-4-yl)ethenyl]-8-methoxy-2,2-dimethyl-[2H]chromen] | 6,73
COc1ccc(CC(C#N)c2ccncc2)c2c1OC(C)(C)CC2 (racemic) [Verbindung 9, (±)-5-[2-Cyano-2-(pyrid-4-yl)ethyl]-8-methoxy-2,2-dimethylchroman] | 7,01
COc1ccc(CCc2ccncc2)c2c1OC1(CCCC1)CC2 [Verbindung 3, Spiro{5-[2-(pyrid-4-yl)ethyl]-8-methoxychroman-2.1'-Cyclopentan}] | 7,59
COc1ccc(/C=C(\C#N)c2ccccn2)c2c1OC(C)(C)C=C2 [Verbindung 7, (Z)-5-[2-Cyano-2-(pyrid-2-yl)ethenyl]-8-methoxy-2,2-dimethyl-[2H]chromen] | 5,95
COc1ccc(CC(C#N)c2ccncc2)c2c1OC1(CCCC1)CC2 (racemic) [Verbindung 8, (±)-Spiro{5-[2-Cyano-2-(pyrid-4-yl)ethyl]-8-methoxychroman}] | 6,95
COc1ccc(/C=C(\C#N)c2cccnc2)c2c1OC(C)(C)C=C2 [Verbindung 6, (Z)-5-[2-Cyano-2-(pyrid-3-yl)ethenyl]-8-methoxy-2,2-dimethyl-[2H]chromen] | 6,36
COc1ccc(C(O)Cc2ccncc2)c2c1OC1(C=C2)CCCC1 (racemic) [Verbindung 1, (±)-Spiro{5-[1-Hydroxy-2-(pyrid-4-yl)ethyl]-8-methoxy-[2H]chromen-2,1'-Cyclopentan}] | 5,88
COc1ccc(/C=C/c2ccncc2)c2c1OC1(C=C2)CCCC1 [Verbindung 2, (E)-Spiro{5-[2-(pyrid-4-yl)ethenyl]-8-methoxy-[2H]chromen-2,1'-Cyclopentan}] | 7,10
COc1ccc(CC(C#N)c2ccccn2)c2c1OC(C)(C)CC2 (racemic) [Verbindung 10, (±)-5-[2-Cyano-2-(pyrid-2-yl)ethyl]-8-methoxy-2,2-dimethylchroman] | 6,76
